The results in this text go back to publication PMC5702336, “Critical Role of Hepatic Cyp450s in the Testis-Specific Toxicity of (5R)-5-Hydroxytriptolide in C57BL/6 Mice” (Frontiers in Pharmacology, 2017).

The series can be described thus: Toxicokinetics of LLDT-8 in WT and liver-Cpr KO mice after a single oral dose (plasma and tissue levels by LC-MS/MS). The class given is in vivo, mouse. The settings on record: for T1/2: mean ± SD, n = 5. On the procedure: For toxicokinetic experiments, mice (n = 5–6/group for each time point) were treated with a single dose of LLDT-8 at (0.5 or 1.0 mg/kg) by oral gavage, creating 4 treatment groups: 0.5 mg/kg LLDT-8-treated WT and KO mice, and 1.0 mg/kg LLDT-8-treated WT and KO mice. After LLDT-8 treatment, 20 μL blood samples were collected at 5, 10, 20, 30, 45, 60, 90, 120, and 180 min from tail vein. Plasma was separated by centrifugation at 3,000 rpm for 5 min and kept at −80°C until analysis. Tissues including the liver, kidney, testes, and epididymis were also collected from individual mice at 30 and 180 min after dosing and were weighed and homogenized in saline (1.0 g wet weight/mL) on ice. LLDT-8 was then extracted from the plasma or the tissue homogenates with an equal volume of ethyl acetate and dried under nitrogen. The residues were reconstituted in 50 μL of mobile phase for analysis.
The quantification of LLDT-8 in samples was performed on Shimadzu 20A HPLC system (Shimadzu, Kyoto, Japan) equipped with an autosampler coupled to Shimadzu 8030 triple quadrupole mass spectrometer (Shimadzu, Kyoto, Japan). Separations were conducted under isocratic conditions. The mobile phase consisting of acetonitrile and water with 0.1% formic acid (50:50, v/v) was set at a flow rate of 0.2 mL/min. An electrospray interface in negative ionization mode was used. ESI source parameters were as followed: high purity drying-gas (N2) flow rate 8 L/min, temperature 400°C, nebulizer pressure 25 psi. Multiple reaction monitoring (MRM) was used to quantify LLDT-8 (m/z 421.20 [M+COO]- → 45.10, fragmentor 110 eV, collision energy −20 eV). Analytical data were processed using the labsolution software package (Shimadzu, Kyoto, Japan) consisting of qualitative and quantitative software.
Standard curves for LLDT-8 were prepared by spiking known amounts of the LLDT-8 standard into plasma or tissue homogenate samples prepared from untreated mice. LLDT-8 concentrations in biological samples were determined by comparisons with standard curves. Pharmacokinetics were calculated using Kinetica software (version 4.4.1; Thermo Fisher Scientific Inc, Woburn, MA).

Where [1] appears, read: KO mice, plasma, 1.0 mg/kg single oral dose.
Setting [2] is: WT mice, plasma, 1.0 mg/kg single oral dose.

One may read the Cmax as the maximum level reached in the sampled fluid or tissue. By Tmax is commonly meant the time at which the peak concentration occurs.

Take `CC(C)[C@]12O[C@H]1[C@@H]1O[C@]13[C@]1(O[C@H]1C[C@@]1(O)C4=C(CC[C@]31C)C(=O)OC4)[C@@H]2O` [LLDT-8, (5R)-5-hydroxytriptolide]: where the note is “30 min after 1.0 mg/kg oral dose”, the “LLDT-8 levels in liver, kidney, testis and epididymis of KO mice relative to WT mice” value was 2–3 folds. For the same molecule, under setting [1], the AUC is 753.52 ± 76.39 [ng/ml] × h, the “CL (oral clearance)” value stood at 22.2 ± 2 mL/min/kg, the Cmax came out at 57.97 ± 8.28 ng/mL and the time to peak (Tmax) is 19.8 ± 6.6 min. Under setting [1], this molecule registered a T1/2 of 35.4 ± 3.6 min. Besides, under setting [2], the “CL (oral clearance)” value turned out to be 68.8 ± 8.83 mL/min/kg, the highest concentration (Cmax) came to 29.95 ± 2.81 ng/mL, the Tmax turned out to be 10.2 ± 0 min and the T1/2 came to 18.6 ± 1.8 min. Also, under “single oral dose”, the “clearance in KO mice compared to WT mice” value was “marked decrease”. For the setting “single oral dose, KO vs WT”, the “increase in AUC in KO mice” value is 3.1 folds to WT mice, the “increase in Cmax in KO mice” value is reported as 1.9 folds to WT mice and the “increase in half-life in KO mice” value is given as 1.9 folds to WT mice.
